According to patent publication US10905120B2, “ABA receptor agonists that modulate transpiration” (The Regents of the University of California, priority 2016, dated 2021):
≈ marks a conversion by molar mass, not a printed value. Like-named read-outs stand apart in the source and are kept apart here.

Tests used:
[1] = system: adult Arabidopsis plants; test: Thermal imaging assay of sprayed adult plants; format: in vivo; details: sprayed at 50 uM dose on adult Arabidopsis plants; compared with quinabactin and ABA at the same dose
Description: Molecules that elicit ABA-like effects in vivo typically close guard cells, which arrests transpirational water loss, resulting in less efficient cooling of the leaf surface and a concomitant increase in leaf surface temperature. Infrared thermography has recently emerged as an attractive, noninvasive technique to evaluate plant leaf surface temperature.
For the adult plants used for thermal imaging, seeds were sterilized as described in Example 3. Afterwards, the seeds were spread onto 0.7% agar MS plant growth medium containing one-half MS salts and 0.5% sucrose. After 4 d of stratification at 4° C., these plates were transferred to a growth chamber in light and allowed to germinate and grow for 7 d. The seedlings then were transferred into soil, and plants of 3-4 wk old were used for thermal imaging. Before thermal imaging, topical spraying of the plants was performed with a water solution containing an active agent (50 μM ABA, quinabactin, or a test compound of interest), 0.5% DMSO, and 0.02% polyalkyleneoxide modified heptamethyltrisiloxane surfactant (Silwet-77). Thermal images were collected just before spraying, 24 h after treatment, and 48 h after treatment. Treated plants were compared to mock-treated plants that had been sprayed with water containing 0.5% DMSO and 0.02% Silwet-77.
Thermal images were collected at 16 h after treatment. Thermal images were quantified using the Flir tools software version 5.2.15161.1001 by measuring the average leaf temperature of 5-6 leaves per plant. Average temperatures were calculated for 10 replicate plants (in 5 pots) per treatment. Statistical comparisons between the treated and the mock-treated plants were performed using pairwise t-tests. In the graphs represented in FIG. 1B, error bars represent the standard error of mean, asterisks symbols indicate statistical significance, and * indicates p≤0.05, ** for p≤0.01, *** for p≤0.001.

[2] = target: T1, PYL2 (Arabidopsis thaliana, UniProt O80992); test: PP2C inhibition assay, recombinant PYL2 receptor; format: biochemical
T1 sequence (O80992 1-190): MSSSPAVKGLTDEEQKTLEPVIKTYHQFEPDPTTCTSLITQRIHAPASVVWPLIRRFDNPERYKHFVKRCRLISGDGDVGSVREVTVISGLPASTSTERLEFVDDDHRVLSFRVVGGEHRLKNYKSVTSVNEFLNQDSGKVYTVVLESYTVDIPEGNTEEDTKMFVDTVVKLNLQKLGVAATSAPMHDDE
T1 sequence (Q9CAJ0 23-511 partner): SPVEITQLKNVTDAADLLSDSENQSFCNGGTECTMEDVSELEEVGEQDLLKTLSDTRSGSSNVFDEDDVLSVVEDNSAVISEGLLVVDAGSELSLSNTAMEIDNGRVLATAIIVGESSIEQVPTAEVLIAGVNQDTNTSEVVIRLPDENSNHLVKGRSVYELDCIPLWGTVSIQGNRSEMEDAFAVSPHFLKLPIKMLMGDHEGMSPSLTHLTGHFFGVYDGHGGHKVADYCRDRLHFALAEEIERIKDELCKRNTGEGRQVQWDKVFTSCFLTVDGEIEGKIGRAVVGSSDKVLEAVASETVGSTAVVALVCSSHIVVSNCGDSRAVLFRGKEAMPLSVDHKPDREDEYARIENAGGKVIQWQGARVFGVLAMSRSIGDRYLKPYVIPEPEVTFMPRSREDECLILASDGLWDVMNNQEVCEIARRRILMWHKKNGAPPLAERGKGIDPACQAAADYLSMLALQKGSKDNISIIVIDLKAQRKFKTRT
Protocol: (§1) Reactions were started by adding 40 μL of a reaction solution containing 25 mM 4-nitrophenyl phosphate in assay buffer, after which absorbance measurements were immediately collected using a 405 nm on Wallac plate reader. Reactions contained 100 nM PP2C and 200 nM PYR/PYL proteins. […] The dose response data was fitted to a log (inhibitor) vs response-(variable slope) model using non-linear regression to infer the IC50 values using Graph Pad Prism 6.0.

[3] = target: T2, PYR1 (Arabidopsis thaliana, UniProt O49686); test: PP2C inhibition assay, recombinant PYR1 receptor; format: biochemical
T2 sequence (O49686 1-191): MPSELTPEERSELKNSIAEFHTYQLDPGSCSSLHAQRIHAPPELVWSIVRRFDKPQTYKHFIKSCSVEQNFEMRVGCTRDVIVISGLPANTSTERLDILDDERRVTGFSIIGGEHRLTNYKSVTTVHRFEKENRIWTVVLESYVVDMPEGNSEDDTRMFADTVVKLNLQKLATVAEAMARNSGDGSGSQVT
T2 sequence (Q9CAJ0 23-511 partner): T1 sequence (Q9CAJ0 23-511 partner)
Protocol: as §1

[4] = system: Arabidopsis thaliana seeds; test: Germination assay; format: in vivo; details: Minimal Inhibitory Concentration, 3 d in darkness after 4 d stratification
Protocol: Germination experiments were performed with Arabidopsis thaliana seeds of wildtype Col0, Ler, or mutant backgrounds.
Seeds were sterilized by 30 sec incubation in 70% ethanol solution followed by a 5 min […] (while vigorously shaking) in a bleach-Tween solution. Afterwards, the sterilizing solutions were removed, and five washes were performed with sterile distilled water. To enhance complete removal of the solutions between the different steps, short centrifuge spins were performed. Finally, the now surface-sterilized seeds were re-suspended in an aseptic 0.1% agar solution to simplify distribution over multiwall plates. One drop of the solution contained on average 20-30 seeds.
In the multiwell plates, seeds were plated onto 0.7% agar Murashige amd Skoog (MS) plant growth medium containing one-half MS salts and 0.5% sucrose containing different concentrations of ABA, quinabactin, or the compound of interest. After 4 d of stratification at 4° C., the plates were transferred to a growth chamber in darkness and allowed to germinate for 3 d before germination was evaluated. The results are shown above in Table 1 and FIGS. 3A and 3B.

[5] = target: T3, PYR1^I110V mutant (Arabidopsis thaliana, UniProt O49686, I110V); test: Phosphatase inhibition assay with PYR1 I110V mutant; format: biochemical
T3 construct: made in house
T3 sequence (O49686 whole entry I110V, one chain of several): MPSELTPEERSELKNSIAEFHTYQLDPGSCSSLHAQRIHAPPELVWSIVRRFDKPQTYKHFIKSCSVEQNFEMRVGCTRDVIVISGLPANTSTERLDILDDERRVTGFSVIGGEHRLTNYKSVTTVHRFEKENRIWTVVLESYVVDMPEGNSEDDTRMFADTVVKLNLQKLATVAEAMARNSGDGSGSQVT
Protocol: (§2) Without intending to be bound by theory, subtle changes in the binding pockets of PYR1/PYL2 proteins can dictate the orientation of pyrabactin and contribute towards its selectivity towards PYR1 vs PYL2. […] Cyanabactin's activity was tested with the PYR1^I110V and the reciprocal PYL2^V114I mutants to provide possible insights into its selectivity for PYR1 vs PYL2.
(§3) Recombinant PYR1^I110V and PYL2^V114I proteins were prepared using a previously described protocol previously (Peterson Peterson, F. C. et al., “Structural Basis for Selective Activation of ABA Receptors,” Nat. Struct. Mol. Biol. 2010, 17 (99), 1109-1113) and tested in absorbance based phosphatase inhibition assay using p-nitrophenol phosphate as substrate as previously described.

[6] = target: T4, PYL2^V114I mutant (Arabidopsis thaliana, UniProt O80992, V114I); test: Phosphatase inhibition assay with PYL2 V114I mutant; format: biochemical
T4 construct: made in house
T4 sequence (O80992 whole entry V114I, one chain of several): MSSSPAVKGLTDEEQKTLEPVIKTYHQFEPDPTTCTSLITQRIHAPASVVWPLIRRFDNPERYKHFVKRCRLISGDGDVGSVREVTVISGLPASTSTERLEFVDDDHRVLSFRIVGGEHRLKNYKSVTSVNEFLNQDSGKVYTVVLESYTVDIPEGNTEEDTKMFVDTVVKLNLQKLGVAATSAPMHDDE
Protocol: as §2, §3

[7] = target: T3, PYR1^I110V mutant; details: cited from earlier work
[8] = target: T4, PYL2^V114I mutant; details: cited from earlier work
[9] = recombinant receptor 200 nM, PP2C 100 nM, 4-nitrophenyl phosphate substrate, absorbance 405 nm, read-out: IC50 PYL2
[10] = recombinant receptor 200 nM, PP2C 100 nM, 4-nitrophenyl phosphate substrate, absorbance 405 nm, read-out: IC50 PYR1
[11] = recombinant mutant receptor, p-nitrophenol phosphate substrate

| Compound | increase of leaf surface temperature [1] | IC50 [2, 9] | IC50 [3, 10] | MIC (μM) Germination [4] | also measured |
| --- | --- | --- | --- | --- | --- |
| CCCc1cc(NS(=O)(=O)Cc2ccc(C)cc2)ccc1C#N [Ligand Q31, N-(4-Cyano-3-propylphenyl)-1-(4-methylphenyl)methanesulfonamide] | to a lesser extent | 2910 ± 270 nM | 100 ± 0.4 nM | 10 µM (≈ 3.28 µg/mL) |  |
| CCOc1cc(NS(=O)(=O)Cc2ccc(C)cc2)ccc1C#N [Ligand Q26, N-(4-Cyano-3-ethoxyphenyl)-1-(4-methylphenyl)methanesulfonamide] | increase the leaf surface temperature significantly | 7460 ± 469 nM | 112 ± 15 nM | 10 µM (≈ 3.3 µg/mL) |  |
| Cc1ccc(CS(=O)(=O)Nc2ccc(C#N)c(C3CC3)c2)cc1 [Ligand Q27, N-(4-Cyano-3-cyclopropylphenyl)-1-(4-methylphenyl)methanesulfonamide] | increase the leaf surface temperature significantly | 3270 nM | 87 nM | 5 µM (≈ 1.63 µg/mL) | fold less active in PYR1^I110V mutant as compared to WT PYR1 ([5]; ratio of IC50s): approximately 9 fold; IC50 [5, 11]: 787 nM; fold more active in PYL2^V114I mutant as compared to WT PYL2 ([6]; ratio of IC50s): 3.3 fold; IC50 [6, 11]: 981 nM |
| CC1=CC(=O)CC(C)(C)[C@@]1(O)/C=C/C(C)=C\C(=O)O [ABA, Abscisic acid, reference compound] |  |  |  | 1 µM (≈ 0.264 µg/mL) | IC50 [2]: 39 ± 2.3 nM; IC50 [3]: 111 ± 3.8 nM; responsiveness of PYR1^I110V mutant as compared to wild-type PYR1 [7]: retained responsiveness; responsiveness of PYL2^V114I mutant as compared to WT PYL2 [8]: retained responsiveness |
| CCc1cc(NS(=O)(=O)Cc2ccc(C)cc2)ccc1C#N [Ligand Q29, N-(4-Cyano-3-ethylphenyl)-1-(4-methylphenyl)methanesulfonamide] | to a lesser extent | 2700 ± 64 nM | 48 ± 0.3 nM | 5 µM (≈ 1.57 µg/mL) |  |
| Cc1cc(NS(=O)(=O)Cc2ccc(Cl)cc2)cc(C)c1C#N [Ligand Q22, 1-(4-Chlorophenyl)-N-(4-cyano-3,5-dimethylphenyl)methanesulfonamide] |  | 5630 ± 800 nM | 197 ± 9 nM | 10 µM (≈ 3.35 µg/mL) |  |
| Cc1ccc(CS(=O)(=O)Nc2ccc(C#N)c(C)c2)cc1 [Ligand Q1, N-(4-Cyano-3-methylphenyl)-1-(4-methylphenyl)methanesulfonamide] |  | 20000 ± 1080 nM | 246 ± 60 nM | 10 µM (≈ 3 µg/mL) |  |
| Cc1ccc(CS(=O)(=O)Nc2cc(C)c(C#N)c(Br)c2)cc1 [Ligand Q25, N-(3-Bromo-4-cyano-5-methylphenyl)-1-(4-methylphenyl)methanesulfonamide] |  | 16700 ± 788 nM | 355 ± 34 nM | 25 µM (≈ 9.48 µg/mL) |  |
| CCCc1cc(NS(=O)(=O)Cc2ccc(C)cc2)cc(C)c1C#N [Ligand Q32, N-(4-Cyano-3-methyl-5-propylphenyl)-1-(4-methylphenyl)methanesulfonamide] | to a lesser extent | 1610 ± 23 nM | 220 ± 18 nM | 10 µM (≈ 3.42 µg/mL) |  |
| CCc1cc(NS(=O)(=O)Cc2ccc(C)cc2)cc(C)c1C#N [Ligand Q30, N-(4-Cyano-3-ethyl-5-methylphenyl)-1-(4-methylphenyl)methanesulfonamide] | increase the leaf surface temperature significantly | 969 ± 77 nM | 72 ± 15 nM | 10 µM (≈ 3.28 µg/mL) |  |
| N#Cc1ccc(NS(=O)(=O)Cc2ccc(N)cc2)cc1C(F)(F)F [Ligand Q6, 1-(4-Aminophenyl)-N-[4-cyano-3-(trifluoromethyl)phenyl]methanesulfonamide] |  |  |  | >25 µM | IC50 [2]: > 50000 nM; IC50 [3]: 3400 ± 200 nM |
| Cc1ccc(CS(=O)(=O)Nc2ccc(C#N)c(C(F)(F)F)c2)cc1 [Ligand Q4, N-(4-Cyano-3-(trifluoromethyl)-phenyl)-1-(4-methylphenyl)methanesulfonamide] |  |  |  | 10 µM (≈ 3.54 µg/mL) | IC50 [2]: 9580 ± 102 nM; IC50 [3]: 258 ± 19 nM |
| CC(=O)Nc1ccc(NS(=O)(=O)Cc2ccc(C)cc2)cc1C(F)(F)F [Ligand Q10, N-[4-{[(4-Methylbenzyl)sulfonyl]amino}-2-(trifluoromethyl)phenyl]acetamide] |  | > 50000 nM | > 50000 nM | >25 µM |  |
| COc1cc(NS(=O)(=O)Cc2ccc(C)cc2)ccc1C#N [Ligand Q20, N-(4-Cyano-3-methoxyphenyl)-1-(4-methylphenyl)methanesulfonamide] |  | 11800 ± 1120 nM | 130 ± 9 nM | 5 µM (≈ 1.58 µg/mL) |  |
| Cc1ccc(CS(=O)(=O)Nc2ccc(C#N)c(Br)c2)cc1 [Ligand Q3, N-(3-Bromo-4-cyanophenyl)-1-(4-methylphenyl)methanesulfonamide] |  | > 50000 nM | 2500 ± 151 nM | >25 µM |  |
| O=S(=O)(NCc1ccccn1)c1ccc(Br)c2ccccc12 [pyrabactin] |  |  |  |  | responsiveness of PYR1^I110V mutant as compared to wild-type PYR1 [7]: dramatically loses pyrabactin responsiveness; responsiveness of PYL2^V114I mutant as compared to WT PYL2 [8]: gains pyrabactin responsiveness |
